Assay results reported in patent US12435059B2, “AMP-activated protein kinase inhibitors and methods of making and using the same” (The Regents of the University of Colorado, priority 2019, dated 2025).
Like-named read-outs stand apart in the source and are kept apart here.

Assays:
Test in all cases: biochemical
Assay type in all cases: binding
468 kinases [1] = biological target: 468 kinases (Homo sapiens, UniProt P11362); details: FGFR1; read-out: % Inhibition @ 100 nM
468 kinases [2] = biological target: 468 kinases (Homo sapiens, UniProt P42681); details: TXK; read-out: % Inhibition @ 100 nM
468 kinases [3] = biological target: 468 kinases (Homo sapiens, UniProt Q13523); details: PRP4; read-out: % Inhibition @ 100 nM
468 kinases [4] = biological target: 468 kinases (Homo sapiens, UniProt Q9NQU5); details: PAK6; read-out: % Inhibition @ 100 nM
468 kinases [5] = biological target: 468 kinases (Homo sapiens, UniProt O75716); details: STK16; read-out: % Inhibition @ 100 nM
468 kinases [6] = biological target: 468 kinases (Homo sapiens, UniProt P42336, Q546K); details: PIK3CA(Q546K); read-out: % Inhibition @ 100 nM
468 kinases [7] = biological target: 468 kinases (Homo sapiens, UniProt P42336, M1043I); details: PIK3CA(M10431); read-out: % Inhibition @ 100 nM
468 kinases [8] = biological target: 468 kinases (Homo sapiens, UniProt Q15835); details: GRK1; read-out: % Inhibition @ 100 nM
468 kinases [9] = biological target: 468 kinases (Homo sapiens, UniProt Q13164); details: ERK5; read-out: % Inhibition @ 100 nM
468 kinases [10] = biological target: 468 kinases (Homo sapiens, UniProt Q9Y2K2); details: QSK; read-out: % Inhibition @ 100 nM
468 kinases [11] = biological target: 468 kinases (Homo sapiens, UniProt Q9UPZ9); details: ICK; read-out: % Inhibition @ 100 nM
468 kinases [12] = biological target: 468 kinases (Homo sapiens, UniProt Q9BRS2); details: RIOK1; read-out: % Inhibition @ 100 nM
468 kinases [13] = biological target: 468 kinases (Homo sapiens, UniProt P15056, V600E); details: BRAF(V600E); read-out: % Inhibition @ 100 nM
468 kinases [14] = biological target: 468 kinases (Homo sapiens, UniProt Q9P286); details: PAK7; read-out: % Inhibition @ 100 nM
468 kinases [15] = biological target: 468 kinases (Homo sapiens, UniProt P45984); details: JNK2; read-out: % Inhibition @ 100 nM
468 kinases [16] = biological target: 468 kinases (Homo sapiens, UniProt P51957); details: NEK4; read-out: % Inhibition @ 100 nM
468 kinases [17] = biological target: 468 kinases (Homo sapiens, UniProt P12931); details: SRC; read-out: % Inhibition @ 100 nM
468 kinases [18] = biological target: 468 kinases (Homo sapiens, UniProt Q9H2K8); details: TAOK3; read-out: % Inhibition @ 100 nM
468 kinases [19] = biological target: 468 kinases (Homo sapiens, UniProt P29320); details: EPHA3; read-out: % Inhibition @ 100 nM
468 kinases [20] = biological target: 468 kinases (Homo sapiens, UniProt Q32MK0); details: MLCK; read-out: % Inhibition @ 100 nM
468 kinases [21] = biological target: 468 kinases (Homo sapiens, UniProt Q9UIK4); details: DAPK2; read-out: % Inhibition @ 100 nM
468 kinases [22] = biological target: 468 kinases (Homo sapiens, UniProt Q9Y4K4); details: MAP4K5; read-out: % Inhibition @ 100 nM
468 kinases [23] = biological target: 468 kinases (Homo sapiens, UniProt Q5VT25); details: MRCKA; read-out: % Inhibition @ 100 nM
468 kinases [24] = biological target: 468 kinases (Homo sapiens, UniProt O43683); details: BUB1; read-out: % Inhibition @ 100 nM
468 kinases [25] = biological target: 468 kinases (Homo sapiens, UniProt P33981); details: TTK; read-out: % Inhibition @ 100 nM
468 kinases [26] = biological target: 468 kinases (Homo sapiens, UniProt P00519, T315I); details: read-out: % Inhibition @ 100 nM
468 kinases [27] = biological target: 468 kinases (Homo sapiens, UniProt P22694); details: PKAC-beta; read-out: % Inhibition @ 100 nM
468 kinases [28] = biological target: 468 kinases (Homo sapiens, UniProt O43283); details: LZK; read-out: % Inhibition @ 100 nM
468 kinases [29] = biological target: 468 kinases (Homo sapiens, UniProt Q9BYT3); details: STK33; read-out: % Inhibition @ 100 nM
468 kinases [30] = biological target: 468 kinases (Homo sapiens, UniProt P04629); details: TRKA; read-out: % Inhibition @ 100 nM
468 kinases [31] = biological target: 468 kinases (Homo sapiens, UniProt O75747); details: PIK3C2G; read-out: % Inhibition @ 100 nM
468 kinases [32] = biological target: 468 kinases (Homo sapiens, UniProt Q9UK32); details: read-out: % Inhibition @ 100 nM

468 kinases (Homo sapiens, UniProt Q13523), sequence (Q13523 2-1007 limits assumed): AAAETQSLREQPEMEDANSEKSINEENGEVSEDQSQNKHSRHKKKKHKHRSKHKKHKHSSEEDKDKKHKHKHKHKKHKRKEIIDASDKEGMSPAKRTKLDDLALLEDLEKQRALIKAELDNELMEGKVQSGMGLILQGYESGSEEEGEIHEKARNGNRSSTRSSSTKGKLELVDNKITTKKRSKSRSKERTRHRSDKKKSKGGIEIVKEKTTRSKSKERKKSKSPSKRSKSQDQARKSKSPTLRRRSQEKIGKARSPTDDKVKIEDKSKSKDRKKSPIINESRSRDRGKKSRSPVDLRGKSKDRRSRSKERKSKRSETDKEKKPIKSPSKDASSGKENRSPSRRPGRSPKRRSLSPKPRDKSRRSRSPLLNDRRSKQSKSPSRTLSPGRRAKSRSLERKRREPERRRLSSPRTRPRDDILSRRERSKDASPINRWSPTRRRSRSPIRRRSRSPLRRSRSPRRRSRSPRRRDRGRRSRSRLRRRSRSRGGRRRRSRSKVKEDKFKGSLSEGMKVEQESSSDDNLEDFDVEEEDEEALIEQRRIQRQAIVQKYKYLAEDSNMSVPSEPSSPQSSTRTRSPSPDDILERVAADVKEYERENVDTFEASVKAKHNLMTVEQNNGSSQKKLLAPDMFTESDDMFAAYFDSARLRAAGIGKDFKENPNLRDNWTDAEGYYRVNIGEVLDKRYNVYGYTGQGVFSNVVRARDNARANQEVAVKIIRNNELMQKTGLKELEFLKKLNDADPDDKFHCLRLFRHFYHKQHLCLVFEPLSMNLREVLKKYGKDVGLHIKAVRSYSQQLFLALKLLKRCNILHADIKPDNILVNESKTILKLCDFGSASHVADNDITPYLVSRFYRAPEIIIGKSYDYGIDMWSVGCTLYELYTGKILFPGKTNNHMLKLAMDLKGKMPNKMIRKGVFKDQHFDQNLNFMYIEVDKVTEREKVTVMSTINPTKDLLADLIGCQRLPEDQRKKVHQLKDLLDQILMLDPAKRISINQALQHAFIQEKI
468 kinases (Homo sapiens, UniProt P29320), sequence (P29320 21-983 limits assumed): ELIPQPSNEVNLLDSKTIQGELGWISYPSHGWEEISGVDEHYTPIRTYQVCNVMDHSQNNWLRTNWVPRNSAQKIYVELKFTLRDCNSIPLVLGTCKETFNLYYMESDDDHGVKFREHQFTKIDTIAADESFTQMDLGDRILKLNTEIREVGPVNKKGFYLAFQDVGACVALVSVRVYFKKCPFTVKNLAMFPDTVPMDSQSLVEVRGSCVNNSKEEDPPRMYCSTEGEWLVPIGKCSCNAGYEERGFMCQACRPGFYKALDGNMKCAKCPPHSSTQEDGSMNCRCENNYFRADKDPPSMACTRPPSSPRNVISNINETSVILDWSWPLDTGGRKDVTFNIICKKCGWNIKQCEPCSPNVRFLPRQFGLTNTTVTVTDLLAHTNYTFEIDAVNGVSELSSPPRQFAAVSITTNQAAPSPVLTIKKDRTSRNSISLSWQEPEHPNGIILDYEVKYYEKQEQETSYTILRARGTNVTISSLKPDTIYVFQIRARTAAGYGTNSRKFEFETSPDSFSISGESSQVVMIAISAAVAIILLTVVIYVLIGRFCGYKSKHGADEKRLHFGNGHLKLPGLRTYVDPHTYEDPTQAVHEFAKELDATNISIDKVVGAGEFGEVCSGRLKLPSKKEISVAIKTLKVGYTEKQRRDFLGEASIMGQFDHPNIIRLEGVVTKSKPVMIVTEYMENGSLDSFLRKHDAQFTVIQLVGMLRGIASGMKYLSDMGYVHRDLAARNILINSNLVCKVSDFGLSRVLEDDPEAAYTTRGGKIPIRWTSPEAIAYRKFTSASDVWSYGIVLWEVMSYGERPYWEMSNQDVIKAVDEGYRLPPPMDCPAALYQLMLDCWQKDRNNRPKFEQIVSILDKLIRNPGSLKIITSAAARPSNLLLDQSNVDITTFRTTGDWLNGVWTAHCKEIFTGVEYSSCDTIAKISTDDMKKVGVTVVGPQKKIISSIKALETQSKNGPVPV
468 kinases (Homo sapiens, UniProt P15056, V600E), sequence (P15056 2-766 V600E limits assumed): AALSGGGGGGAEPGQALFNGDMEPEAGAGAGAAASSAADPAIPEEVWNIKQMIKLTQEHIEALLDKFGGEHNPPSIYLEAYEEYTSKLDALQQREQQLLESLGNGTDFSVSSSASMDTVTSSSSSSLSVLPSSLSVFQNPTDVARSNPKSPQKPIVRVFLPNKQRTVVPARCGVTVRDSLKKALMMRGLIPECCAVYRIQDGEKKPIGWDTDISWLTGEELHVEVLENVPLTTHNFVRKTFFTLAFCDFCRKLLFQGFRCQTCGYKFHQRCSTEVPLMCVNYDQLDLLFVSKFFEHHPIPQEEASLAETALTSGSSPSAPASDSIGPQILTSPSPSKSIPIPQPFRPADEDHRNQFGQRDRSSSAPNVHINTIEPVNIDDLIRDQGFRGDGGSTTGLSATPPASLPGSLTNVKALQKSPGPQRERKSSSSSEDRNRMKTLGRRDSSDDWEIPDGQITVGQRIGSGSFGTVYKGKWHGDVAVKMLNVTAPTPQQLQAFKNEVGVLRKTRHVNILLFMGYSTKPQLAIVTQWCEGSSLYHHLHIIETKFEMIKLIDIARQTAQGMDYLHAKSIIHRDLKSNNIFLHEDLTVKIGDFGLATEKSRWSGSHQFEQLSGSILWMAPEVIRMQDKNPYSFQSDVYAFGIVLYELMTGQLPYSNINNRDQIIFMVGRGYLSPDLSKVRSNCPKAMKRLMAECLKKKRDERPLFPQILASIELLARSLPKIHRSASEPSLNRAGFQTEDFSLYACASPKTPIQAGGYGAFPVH
468 kinases (Homo sapiens, UniProt P04629), sequence (P04629 33-796 limits assumed): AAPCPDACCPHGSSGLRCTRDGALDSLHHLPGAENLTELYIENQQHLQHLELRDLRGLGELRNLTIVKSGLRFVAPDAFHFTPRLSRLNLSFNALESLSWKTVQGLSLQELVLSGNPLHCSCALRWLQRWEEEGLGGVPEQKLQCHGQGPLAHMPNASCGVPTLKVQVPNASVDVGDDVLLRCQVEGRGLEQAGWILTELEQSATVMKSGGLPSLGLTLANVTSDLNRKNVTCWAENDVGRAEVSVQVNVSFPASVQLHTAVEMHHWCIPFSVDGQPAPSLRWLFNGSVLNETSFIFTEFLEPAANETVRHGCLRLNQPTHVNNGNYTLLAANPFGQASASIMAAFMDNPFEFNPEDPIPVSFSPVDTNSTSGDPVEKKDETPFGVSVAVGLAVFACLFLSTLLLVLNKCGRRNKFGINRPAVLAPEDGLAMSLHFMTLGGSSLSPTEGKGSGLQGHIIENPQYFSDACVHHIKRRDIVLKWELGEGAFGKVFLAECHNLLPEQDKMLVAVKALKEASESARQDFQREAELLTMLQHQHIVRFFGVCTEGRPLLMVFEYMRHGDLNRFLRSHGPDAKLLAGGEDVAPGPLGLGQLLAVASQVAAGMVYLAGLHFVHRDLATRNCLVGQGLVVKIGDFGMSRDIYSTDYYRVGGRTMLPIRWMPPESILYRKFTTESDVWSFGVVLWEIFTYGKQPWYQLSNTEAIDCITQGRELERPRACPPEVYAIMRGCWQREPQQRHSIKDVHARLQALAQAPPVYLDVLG
468 kinases (Homo sapiens, UniProt P11362), sequence (P11362 22-822 limits assumed): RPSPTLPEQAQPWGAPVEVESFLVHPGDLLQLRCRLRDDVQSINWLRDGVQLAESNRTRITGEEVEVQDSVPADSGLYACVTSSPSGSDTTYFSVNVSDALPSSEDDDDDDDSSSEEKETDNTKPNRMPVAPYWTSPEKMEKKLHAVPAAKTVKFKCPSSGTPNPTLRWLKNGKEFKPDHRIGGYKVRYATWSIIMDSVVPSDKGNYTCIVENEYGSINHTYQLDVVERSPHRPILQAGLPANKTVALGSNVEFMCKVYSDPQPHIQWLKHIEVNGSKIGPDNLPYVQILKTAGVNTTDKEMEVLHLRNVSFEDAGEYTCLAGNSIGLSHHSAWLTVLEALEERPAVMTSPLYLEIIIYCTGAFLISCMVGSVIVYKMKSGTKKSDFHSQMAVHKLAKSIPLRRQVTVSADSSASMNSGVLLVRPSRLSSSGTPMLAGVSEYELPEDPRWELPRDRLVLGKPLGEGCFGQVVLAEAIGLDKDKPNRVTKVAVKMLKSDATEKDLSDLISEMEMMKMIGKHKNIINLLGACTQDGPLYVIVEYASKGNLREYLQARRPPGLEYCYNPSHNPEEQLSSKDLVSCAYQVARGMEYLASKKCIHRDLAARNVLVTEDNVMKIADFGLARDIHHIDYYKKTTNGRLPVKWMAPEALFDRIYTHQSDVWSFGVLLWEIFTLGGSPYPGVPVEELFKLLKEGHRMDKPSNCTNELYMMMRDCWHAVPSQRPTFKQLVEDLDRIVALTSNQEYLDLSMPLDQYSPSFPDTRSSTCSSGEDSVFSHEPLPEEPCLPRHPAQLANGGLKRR
468 kinases (Homo sapiens, UniProt O75716), sequence (O75716 2-305 limits assumed): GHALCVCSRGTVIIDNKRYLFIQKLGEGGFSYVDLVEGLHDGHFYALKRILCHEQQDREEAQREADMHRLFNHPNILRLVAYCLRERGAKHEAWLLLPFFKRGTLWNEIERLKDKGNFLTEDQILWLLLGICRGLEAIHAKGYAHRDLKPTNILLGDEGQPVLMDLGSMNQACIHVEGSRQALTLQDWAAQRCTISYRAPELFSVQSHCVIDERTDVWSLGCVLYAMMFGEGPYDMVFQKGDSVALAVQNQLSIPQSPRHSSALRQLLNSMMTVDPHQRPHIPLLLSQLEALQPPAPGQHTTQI

Compound `CCN(CC)CCNC(=O)c1c(C)[nH]c(/C=C2\C(=O)Nc3ccc(CCC(N)=O)cc32)c1C` [Compound No. 16, (Z)-5-((5-(3-Amino-3-oxopropyl)-2-oxoindolin-3-ylidene)methyl)-N-(2-(diethylamino)ethyl)-2,4-dimethyl-1H-pyrrole-3-carboxamide] has an inhibition at 0.1 µM (468 kinases [1]) of 14%, an inhibition at 0.1 µM (468 kinases [2]) of 16% and an inhibition at 0.1 µM (468 kinases [3]) of 76%. For the same compound, the inhibition at 0.1 µM (468 kinases [4]) was 0%, the inhibition at 0.1 µM (468 kinases [5]) was 6% and the inhibition at 0.1 µM (468 kinases [6]) was 3%. For the same compound, the inhibition at 0.1 µM (468 kinases [7]) was 12%, the inhibition at 0.1 µM (468 kinases [8]) was 37% and the inhibition at 0.1 µM (468 kinases [9]) was 100%. For the same compound, the inhibition at 0.1 µM (468 kinases [10]) was 0%, the inhibition at 0.1 µM (468 kinases [11]) was 88% and the inhibition at 0.1 µM (468 kinases [12]) was 87%. For the same compound, the inhibition at 0.1 µM (468 kinases [13]) was 0%, the inhibition at 0.1 µM (468 kinases [14]) was 11% and the inhibition at 0.1 µM (468 kinases [15]) was 32%. For the same compound, the inhibition at 0.1 µM (468 kinases [16]) was 9%, the inhibition at 0.1 µM (468 kinases [17]) was 6% and the inhibition at 0.1 µM (468 kinases [18]) was 56%. For the same compound, the inhibition at 0.1 µM (468 kinases [19]) was 14%, the inhibition at 0.1 µM (468 kinases [20]) was 0% and the inhibition at 0.1 µM (468 kinases [21]) was 7%. The inhibition at 0.1 µM (468 kinases [22]) was 53%, the inhibition at 0.1 µM (468 kinases [23]) was 9% and the inhibition at 0.1 µM (468 kinases [24]) was 21%. It also gave an inhibition at 0.1 µM (468 kinases [25]) of 8%, an inhibition at 0.1 µM (468 kinases [26]; ABL1 (T3151)-nonphosphorylated) of 61% and an inhibition at 0.1 µM (468 kinases [26]; ABL1 (T3151)-phosphorylated) of 86%. The inhibition at 0.1 µM (468 kinases [27]) was 13%, the inhibition at 0.1 µM (468 kinases [28]) was 61% and the inhibition at 0.1 µM (468 kinases [29]) was 78%. It also gave an inhibition at 0.1 µM (468 kinases [30]) of 97.4%, an inhibition at 0.1 µM (468 kinases [31]) of 4% and an inhibition at 0.1 µM (468 kinases [32]; RSK4(Kin.Dom.1-N-terminal)) of 70%. For the same compound, the inhibition at 0.1 µM (468 kinases [32]; RSK4(Kin.Dom.2-C-terminal)) was 22%.
In the case of `CCN(CC)CCNC(=O)c1c(C)[nH]c(/C=C2\C(=O)Nc3ccc(CCO)cc32)c1C` [Compound No. 10, (Z)—N-(2-(Diethylamino)ethyl)-5-((5-(2-hydroxyethyl)-2-oxoindolin-3-ylidene)methyl)-2,4-dimethyl-1H-pyrrole-3-carboxamide], the inhibition at 0.1 µM (468 kinases [1]) was 44%, the inhibition at 0.1 µM (468 kinases [2]) was 10% and the inhibition at 0.1 µM (468 kinases [3]) was 87%. For the same compound, the inhibition at 0.1 µM (468 kinases [4]) was 0%, the inhibition at 0.1 µM (468 kinases [5]) was 0% and the inhibition at 0.1 µM (468 kinases [6]) was 0%. The inhibition at 0.1 µM (468 kinases [7]) was 0%, the inhibition at 0.1 µM (468 kinases [8]) was 39% and the inhibition at 0.1 µM (468 kinases [9]) was 6%. It also gave an inhibition at 0.1 µM (468 kinases [10]) of 0%, an inhibition at 0.1 µM (468 kinases [11]) of 0% and an inhibition at 0.1 µM (468 kinases [12]) of 88%. It also gave an inhibition at 0.1 µM (468 kinases [13]) of 3%, an inhibition at 0.1 µM (468 kinases [14]) of 0% and an inhibition at 0.1 µM (468 kinases [15]) of 0%. It also gave an inhibition at 0.1 µM (468 kinases [16]) of 0%, an inhibition at 0.1 µM (468 kinases [17]) of 15% and an inhibition at 0.1 µM (468 kinases [18]) of 31%. It also gave an inhibition at 0.1 µM (468 kinases [19]) of 0%, an inhibition at 0.1 µM (468 kinases [20]) of 0% and an inhibition at 0.1 µM (468 kinases [21]) of 0%. It also gave an inhibition at 0.1 µM (468 kinases [22]) of 52%, an inhibition at 0.1 µM (468 kinases [23]) of 3% and an inhibition at 0.1 µM (468 kinases [24]) of 0%. It also gave an inhibition at 0.1 µM (468 kinases [25]) of 0%, an inhibition at 0.1 µM (468 kinases [26]; ABL1 (T3151)-nonphosphorylated) of 56% and an inhibition at 0.1 µM (468 kinases [26]; ABL1 (T3151)-phosphorylated) of 91.8%. The inhibition at 0.1 µM (468 kinases [27]) was 0%, the inhibition at 0.1 µM (468 kinases [28]) was 0% and the inhibition at 0.1 µM (468 kinases [29]) was 70%. The inhibition at 0.1 µM (468 kinases [30]) was 95.5%, the inhibition at 0.1 µM (468 kinases [31]) was 19% and the inhibition at 0.1 µM (468 kinases [32]; RSK4(Kin.Dom.1-N-terminal)) was 0%. The inhibition at 0.1 µM (468 kinases [32]; RSK4(Kin.Dom.2-C-terminal)) was 4%.
